Reference: US11555032B2, “Isoxazole derivatives as FXR agonists and methods of use thereof” (Enanta Pharmaceuticals, Inc., priority 2019, dated 2023)

molecular target: T1, human FXR (NR1H4) (Homo sapiens, UniProt Q96RI1); experiment: Human FXR (NRIH4) Assay, luciferase reporter; assay type: cell-based; details: CHO reporter cells expressing human NR1H4, luciferase, 22 hours incubation
T1 construct: host or cells: CHO (Chinese hamster ovary) reporter cells
T1 sequence (Q96RI1 1-486): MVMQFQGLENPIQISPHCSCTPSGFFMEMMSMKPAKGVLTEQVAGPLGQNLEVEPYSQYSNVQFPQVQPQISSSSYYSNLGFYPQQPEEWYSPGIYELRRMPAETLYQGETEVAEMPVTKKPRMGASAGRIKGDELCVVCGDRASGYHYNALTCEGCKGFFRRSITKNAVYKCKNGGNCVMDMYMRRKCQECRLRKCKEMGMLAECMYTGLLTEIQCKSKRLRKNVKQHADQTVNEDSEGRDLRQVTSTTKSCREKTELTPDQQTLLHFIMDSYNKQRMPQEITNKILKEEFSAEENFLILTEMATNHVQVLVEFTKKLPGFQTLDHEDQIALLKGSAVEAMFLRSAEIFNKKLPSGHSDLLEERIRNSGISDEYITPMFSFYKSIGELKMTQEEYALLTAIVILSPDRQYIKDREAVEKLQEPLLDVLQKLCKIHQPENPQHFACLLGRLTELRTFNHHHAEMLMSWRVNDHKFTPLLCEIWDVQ
Text: Determination of a ligand mediated Gal4 promoter driven transactivation to quantify ligand binding mediated activation of FXR. FXR Reporter Assay kit purchased from Indigo Bioscience (Catalogue number: IB00601) to determine the potency and efficacy of compound developed by Enanta that can induce FXR activation. The principle application of this reporter assay system is to quantify functional activity of human FXR. The assay utilizes non-human mammalian cells, CHO (Chinese hamster ovary) cells engineered to express human NR1H4 protein (referred to as FXR). Reporter cells also incorporate the cDNA encoding beetle luciferase which catalyzes the substrates and yields photon emission. Luminescence intensity of the reaction is quantified using a plate-reading luminometer, Envision. Reporter Cells include the luciferase reporter gene functionally linked to an FXR responsive promoter. Thus, quantifying changes in luciferase expression in the treated reporter cells provides a sensitive surrogate measure of the changes in FXR activity. EC50 and efficacy (normalize to CDCA set as 100%) is determined by XLFit. The assay is according to the manufacturer's instructions. In brief, the assay was performed in white, 96 well plates using final volume of 100 ul containing cells with different doses of compounds. Retrieve Reporter Cells from −80° C. storage. Perform a rapid thaw of the frozen cells by transferring a 10 ml volume of 37° C. cell recovery medium into the tube of frozen cells. Recap the tube of Reporter Cells and immediately place it in a 37° C. water bath for 5-10 minutes. Retrieve the tube of Reporter Cell Suspension from the water bath. Sanitize the outside surface of the tube with a 70% alcohol swab, and then transfer it into the cell culture hood. Dispense 90 μl of cell suspension into each well of the 96-well Assay Plate. Transfer the plate into 37° C. incubator, allowing the cells adherent to the bottom of the well. Dilute compounds in Dilution Plate (DP), and administrate to cells at Assay Plate (AP). DMSO content of the samples was kept at 0.2%. Cells were incubated for additional 22 hours before luciferase activities were measured. Thirty minutes before intending to quantify FXR activity, remove Detection Substrate and Detection Buffer from the refrigerator and place them in a low-light area so that they may equilibrate to room temperature. Remove the plate's lid and discard all media contents by ejecting it into an appropriate waste container. Gently tap the inverted plate onto a clean absorbent paper towel to remove residual droplets. Cells will remain tightly adhered to well bottoms. Add 100 μl of luciferase detection reagent to each well of the assay plate. Allow the assay plate to rest at room temperature for at least 5 minutes following the addition of LDR. Set the instrument (Envision) to perform a single 5 second “plate shake” prior to reading the first assay well. Read time may be 0.5 second (500 mSec) per well. EC50 and Efficacy (normalize to CDCA set as 100%) is determined by XLFit.
The efficacy was normalized to CDCA set as 100%.

Row | EC50 [nM] | SMILES
1 | 25 to 500 | O=C(O)c1cc(F)c2nc(NC3C4CCC3CC(NCc3c(-c5ccccc5OC(F)(F)F)noc3C3CC3)C4)sc2c1 (stereo not drawn) [Example 16]
2 | < 25 | CC(C)Oc1cc(C#N)cc2sc(NC3C4CCC3CC(OCc3c(-c5ccccc5OC(F)(F)F)noc3C3CC3)C4)nc12 (stereo not drawn) [Example 13-6]
3 | > 500 | O=C(O)c1cccc(S(=O)(=O)C2C3CCC2CC(OCc2c(-c4ccccc4OC(F)(F)F)noc2C2CC2)C3)c1 (stereo not drawn) [Example 11-8]
4 | 25 to 500 | O=C(O)c1ccc(S(=O)(=O)NC2C3CCC2CC(OCc2c(-c4ccccc4OC(F)(F)F)noc2C2CC2)C3)c2ccccc12 (stereo not drawn) [Example 9-3]
5 | < 25 | O=C(O)c1cc(C2CC2)c2nc(NC3C4CCC3CC(OCc3c(-c5ccccc5OC(F)(F)F)noc3C3CC3)C4)sc2c1 (stereo not drawn) [Example 36]
6 | < 25 | O=C(O)c1cc(OC(F)(F)F)c2nc(NC3C4CCC3CC(OCc3c(-c5ccccc5OC(F)(F)F)noc3C3CC3)C4)sc2c1 (stereo not drawn) [Example 37]
7 | 25 to 500 | CCOC(=O)c1cccc(S(=O)(=O)C2C3CCC2CC(OCc2c(-c4ccccc4OC(F)(F)F)noc2C2CC2)C3)c1 (stereo not drawn) [Example 11-7]
8 | < 25 | FC(F)(F)Oc1ccccc1-c1noc(C2CC2)c1CO[C@H]1C[C@H]2CC[C@@H](C1)[C@@H]2Nc1cnc2c(-c3nnn[nH]3)cccc2n1 [Example 13-3, N-((1R,3r,5S,8s)-3-((5-cyclopropyl-3-(2-(trifluoromethoxy)phenyl)isoxazol-4-yl)methoxy)bicyclo[3.2.1]octan-8-yl)-5-(1H-tetrazol-5-yl)quinoxalin-2-amine]
9 | 25 to 500 | O=C(O)c1ccc2cc(S(=O)(=O)C3C4CCC3CC(OCc3c(-c5ccccc5OC(F)(F)F)noc3C3CC3)C4)ccc2c1 (stereo not drawn) [Example 11-4]
10 | < 25 | CC(C)Oc1cc(C(=O)O)cc2sc(NC3[C@@H]4CC[C@H]3CC(OCc3c(-c5c(Cl)cccc5Cl)noc3C3CC3)C4)nc12 (stereo partly drawn) [Example 1, 2-(((1R,3r,5S,8s)-3-((5-cyclopropyl-3-(2,6-dichlorophenyl)isoxazol-4-yl)methoxy)bicyclo[3.2.1]octan-8-yl)amino)-4-isopropoxybenzo[d]thiazole-6-carboxylic acid]
11 | < 25 | O=C(NS(=O)(=O)C1CC1)c1cccc2nc(NC3C4CCC3CC(OCc3c(-c5ccccc5OC(F)(F)F)noc3C3CC3)C4)cnc12 (stereo not drawn) [Example 34]
12 | < 25 | N#Cc1cccc2nc(NC3C4CCC3CC(OCc3c(-c5ccccc5OC(F)(F)F)noc3C3CC3)C4)cnc12 (stereo not drawn) [Example 48]
13 | 25 to 500 | FC(F)(F)Oc1ccccc1-c1noc(C2CC2)c1COC1CC2CCC(C1)C2Nc1ccc(-c2nnn[nH]2)cn1 [Example 8-5, N-((1R,3r,5S,8s)-3-((5-cyclopropyl-3-(2-(trifluoromethoxy)phenyl)isoxazol-4-yl)methoxy)bicyclo[3.2.1]octan-8-yl)-5-(1H-tetrazol-5-yl)pyridin-2-amine]
14 | 25 to 500 | CC(C)Oc1ccc(S(=O)(=O)NC2C3CCC2CC(OCc2c(-c4ccccc4OC(F)(F)F)noc2C2CC2)C3)c2ccccc12 (stereo not drawn) [Example 9-17]
15 | > 500 | Fc1ccc(CCNC2C3CCC2CC(OCc2c(-c4ccccc4OC(F)(F)F)noc2C2CC2)C3)cc1 (stereo not drawn) [Example 15-2]
16 | 25 to 500 | CCOC(=O)c1cc(F)c2nc(SC3C4CCC3CC(OCc3c(-c5ccccc5OC(F)(F)F)noc3C3CC3)C4)sc2c1 (stereo not drawn) [Example 11-16]
17 | > 500 | FC(F)(F)Oc1ccccc1-c1noc(C2CC2)c1COC1CC2CCC(C1)C2Nc1ncc(-c2ccccc2)cn1 [Example 8-7, N-((1R,3r,5S,8s)-3-((5-cyclopropyl-3-(2-(trifluoromethoxy)phenyl)isoxazol-4-yl)methoxy)bicyclo[3.2.1]octan-8-yl)-5-phenylpyrimidin-2-amine]
18 | 25 to 500 | COC(=O)c1ccc(S(=O)(=O)C2C3CCC2CC(OCc2c(-c4ccccc4OC(F)(F)F)noc2C2CC2)C3)cc1 (stereo not drawn) [Example 11-14]
19 | < 25 | O=C(O)c1ccc2nc(NC3C4CCC3CC(OCc3c(-c5ccccc5OC(F)(F)F)noc3C3CC3)C4)ccc2c1 (stereo not drawn) [Example 3-6]
20 | > 500 | CCOC(=O)c1cccc(SC2C3CCC2CC(OCc2c(-c4ccccc4OC(F)(F)F)noc2C2CC2)C3)c1 (stereo not drawn) [Example 11-5]

Row | EC50 [nM] | SMILES
21 | 25 to 500 | COC(=O)c1ccc(SC2C3CCC2CC(OCc2c(-c4ccccc4OC(F)(F)F)noc2C2CC2)C3)cc1 (stereo not drawn) [Example 11-12]
22 | 25 to 500 | O=S(=O)(NC1C2CCC1CC(OCc1c(-c3ccccc3OC(F)(F)F)noc1C1CC1)C2)c1cccc2cccnc12 (stereo not drawn) [Example 9-13]
23 | < 25 | O=C(O)c1ccc2nc(NC3C4CCC3CC(OCc3c(-c5ccccc5OC(F)(F)F)noc3C3CC3)C4)cnc2c1 (stereo not drawn) [Example 41]
24 | 25 to 500 | CC(C)Oc1cc(C(=O)O)cc2sc(N[C@@H]3C[C@@H]4C[C@H]3C[C@@H]4OCc3c(-c4ccccc4OC(F)(F)F)noc3C3CC3)nc12 [Example 6]
25 | 25 to 500 | NS(=O)(=O)c1ccc(NC2C3CCC2CC(OCc2c(-c4ccccc4OC(F)(F)F)noc2C2CC2)C3)nc1 (stereo not drawn) [Example 8-3]
26 | < 25 | O=C(O)c1cccc2nc(NC3C4CCC3CC(OCc3c(-c5ccccc5OC(F)(F)F)noc3C3CC3)C4)ncc12 (stereo not drawn) [Example 3-13]
27 | 25 to 500 | O=C(O)c1ccc2nc(S(=O)(=O)C3C4CCC3CC(OCc3c(-c5ccccc5OC(F)(F)F)noc3C3CC3)C4)sc2c1 (stereo not drawn) [Example 11-11]
28 | 25 to 500 | O=S(=O)(NC1C2CCC1CC(OCc1c(-c3ccccc3OC(F)(F)F)noc1C1CC1)C2)c1ccccc1 (stereo not drawn) [Example 9-10]
29 | < 25 | CC(C)Oc1cc(CO)cc2sc(NC3C4CCC3CC(OCc3c(-c5ccccc5OC(F)(F)F)noc3C3CC3)C4)nc12 (stereo not drawn) [Example 10-2]
30 | < 25 | CC(C)Oc1cc(C(=O)O)cc2sc(NC3C4CCC3CC(OCc3c(-c5c(Cl)cccc5Cl)noc3C3CC3)C4)nc12 [Example 2, 2-(((1R,3r,5S,8r)-3-((5-cyclopropyl-3-(2,6-dichlorophenyl)isoxazol-4-yl)methoxy)bicyclo[3.2.1]octan-8-yl)amino)-4-isopropoxybenzo[d]thiazole-6-carboxylic acid]
31 | < 25 | CC(C)Oc1cc(C(=O)O)cc2sc(N[C@@H]3C[C@H]4C[C@@H]3[C@@H](OCc3c(-c5c(Cl)cccc5Cl)noc3C3CC3)C4)nc12 [Example 7]
32 | 25 to 500 | FC(F)(F)Oc1ccccc1-c1noc(C2CC2)c1COC1CC2CCC(C1)C2Nc1cnc2cc(-c3nnn[nH]3)ccc2n1 (stereo not drawn) [Example 25]
33 | < 25 | COC(=O)c1ccc(S(=O)(=O)NC2C3CCC2CC(OCc2c(-c4ccccc4OC(F)(F)F)noc2C2CC2)C3)c2ccccc12 (stereo not drawn) [Example 9-2]
34 | 25 to 500 | COC(=O)c1ccc2nc(SC3C4CCC3CC(NCc3c(-c5ccccc5OC(F)(F)F)noc3C3CC3)C4)[nH]c2c1 (stereo not drawn) [Example 14-3]
35 | < 25 | O=S(=O)(NC1C2CCC1CC(OCc1c(-c3ccccc3OC(F)(F)F)noc1C1CC1)C2)c1cccc2ccncc12 (stereo not drawn) [Example 9-15]
36 | < 25 | O=C(O)c1cc(C2CC2)cc2nc(NC3C4CCC3CC(OCc3c(-c5ccccc5OC(F)(F)F)noc3C3CC3)C4)cnc12 (stereo not drawn) [Example 30]
37 | < 25 | O=C(O)c1cc2sc(NC3C4CCC3CC(OCc3c(-c5ccccc5OC(F)(F)F)noc3C3CC3)C4)nc2c(F)c1F (stereo not drawn) [Example 3-9]
38 | 25 to 500 | O=C(O)c1ccnc(NC2C3CCC2CC(OCc2c(-c4ccccc4OC(F)(F)F)noc2C2CC2)C3)c1 (stereo not drawn) [Example 3-3]
39 | < 25 | O=C(O)c1cccc2nc(SC3C4CCC3CC(OCc3c(-c5ccccc5OC(F)(F)F)noc3C3CC3)C4)cnc12 [Example 12, 2-(((1R,3r,5S,8s)-3-((5-cyclopropyl-3-(2-(trifluoromethoxy)phenyl)isoxazol-4-yl)methoxy)bicyclo[3.2.1]octan-8-yl)thio)quinoxaline-5-carboxylic acid]
